Assay results from ChEMBL document CHEMBL1156493, “Histone deacetylase inhibitors suppress TF-kappaB-dependent agonist-driven tissue factor expression in endothelial cells and monocytes” (J Biol Chem, 2007).
Calls of active or inactive are those of the source. No cut-off for these calls is given here.

Columns and labels:
[1] = biological target: Tissue factor (Homo sapiens) (UniProt P13726); assay: Inhibition of TNF-alpha-induced tissue factor activity in HUVEC at 10 uM preincubated for 4 hrs assessed after 4 hrs of TNFalpha challenge by one stage clotting assay; assay type: cell-based
[2] = biological target: Tissue factor (Homo sapiens) (UniProt P13726); assay: Inhibition of LPS-induced tissue factor activity in HUVEC at 10 uM preincubated for 4 hrs assessed after 4 hrs of LPS challenge by one stage clotting assay; assay type: cell-based
[3] = biological target: Tissue factor (Homo sapiens) (UniProt P13726); assay: Inhibition of TNF-alpha-induced tissue factor activity in HUVEC at 6 uM preincubated for 4 hrs assessed after 4 hrs of TNFalpha challenge by one stage clotting assay; assay type: cell-based
[4] = biological target: Tissue factor (Homo sapiens) (UniProt P13726); assay: Inhibition of LPS-induced tissue factor activity in HUVEC at 6 uM preincubated for 4 hrs assessed after 4 hrs of LPS challenge by one stage clotting assay; assay type: cell-based
[5] = biological target: Tissue factor (Homo sapiens) (UniProt P13726); assay: Inhibition of TNF-alpha-induced tissue factor activity in HUVEC at 30 uM preincubated for 4 hrs assessed after 4 hrs of TNFalpha challenge by one stage clotting assay
[6] = biological target: Tissue factor (Homo sapiens) (UniProt P13726); assay: Inhibition of LPS-induced tissue factor activity in HUVEC at 30 uM preincubated for 4 hrs assessed after 4 hrs of LPS challenge by one stage clotting assay; assay type: cell-based
[7] = biological target: Tissue factor (Homo sapiens) (UniProt P13726); conditions: HUVEC, 3 uM
Description: Inhibition of TNF-alpha-induced tissue factor activity in HUVEC at 3 uM preincubated for 4 hrs assessed after 4 hrs of TNFalpha challenge by one stage clotting assay

[8] = biological target: Tissue factor (Homo sapiens) (UniProt P13726); conditions: HUVEC, 1 uM
Description: Inhibition of LPS-induced tissue factor activity in HUVEC at 1 uM preincubated for 4 hrs assessed after 4 hrs of LPS challenge by one stage clotting assay

[9] = biological target: Tissue factor (Homo sapiens) (UniProt P13726); assay: Inhibition of LPS-induced tissue factor activity in HUVEC at 0.3 uM preincubated for 4 hrs assessed after 4 hrs of LPS challenge by one stage clotting assay
[10] = biological target: T1, Tissue factor (Mus musculus) (UniProt P20352); assay: Inhibition of TNF-alpha-induced tissue factor activity in C57BL/6J mouse macrophages preincubated for 4 hrs assessed after 5 hrs of TNFalpha challenge by one stage clotting assay; conditions: concentration not given here
T1 sequence (whole entry): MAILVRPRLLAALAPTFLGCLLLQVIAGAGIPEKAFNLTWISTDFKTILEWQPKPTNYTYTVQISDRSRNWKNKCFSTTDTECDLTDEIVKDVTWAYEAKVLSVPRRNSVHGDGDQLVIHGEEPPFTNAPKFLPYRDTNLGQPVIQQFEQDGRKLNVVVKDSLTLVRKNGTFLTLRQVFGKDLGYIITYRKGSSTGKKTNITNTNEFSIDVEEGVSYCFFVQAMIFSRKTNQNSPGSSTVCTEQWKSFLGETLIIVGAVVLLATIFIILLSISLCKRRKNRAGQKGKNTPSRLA

HUVEC [11] = assay: Reduction of tissue factor mRNA level in TNF-alpha-stimulated HUVEC at 1 uM preincubated for 4 hrs assessed after 1 to 2 hrs of TNFalpha challenge by RT-PCR; assay type: functional, cell-based; conditions: Homo sapiens
HUVEC [12] = assay: Increase in acetylated histone H4 level in HUVEC preincubated for 4 hrs assessed after 0.5 hrs of TNFalpha challenge by Western blot; assay type: functional, cell-based; conditions: Homo sapiens
HUVEC [13] = assay: Increase in acetylated histone H3 level in HUVEC preincubated for 4 hrs assessed after 0.5 hrs of TNFalpha challenge by Western blot; assay type: functional, cell-based; conditions: Homo sapiens
HUVEC [14] = assay: Induction of PMA-induced wild type NF-kappaB-dependent ICAM promoter expression in HUVEC preincubated for 4 hrs assessed after 6 hrs of PMA challenge by luciferase reporter assay relative to control; assay type: cell-based; conditions: Homo sapiens
HUVEC [15] = assay: Inhibition of TNF-alpha-induced tissue factor protein expression in HUVEC preincubated for 4 hrs assessed after 4 hrs of TNFalpha challenge by Western blotting; assay type: functional, cell-based; conditions: Homo sapiens
[16] = biological target: T1, Tissue factor (Mus musculus); assay: Inhibition of IL-1-beta-induced tissue factor activity in C57BL/6J mouse macrophages preincubated for 4 hrs assessed after 5 hrs of IL1-beta challenge by one stage clotting assay; conditions: concentration not given here
Mus musculus = assay: Decrease in thioglycolate-induced tissue factor activity in C57BL/6J mouse macrophage at 1 mg/kg, ip preincubated for 4 hrs assessed after 5 hrs of thioglycolate challenge by one stage clotting assay; assay type: functional; set-up: scale not given: the % may be the effect or the level left; conditions: route intraperitoneal
HUVEC [17] = assay: Effect on TNF-alpha-induced NF-kappaB activation in HUVEC preincubated for 4 hrs assessed as increase in p50 level after 0.5 hrs of TNFalpha challenge by electrophoretic shift mobility assay; assay type: cell-based; conditions: Homo sapiens
HUVEC [18] = assay: Effect on TNF-alpha-induced TFkappaB activation assessed as p65/c-Rel binding to TFkappaB in HUVEC preincubated for 4 hrs measured after 0.5 hrs of TNFalpha challenge by electrophoretic shift mobility assay; assay type: cell-based; conditions: Homo sapiens
HUVEC [19] = assay: Inhibition of TNF-alpha-induced p65 binding to TFkappaB in HUVEC preincubated for 4 hrs assessed after 0.5 hrs of TNFalpha challenge by chromatin immunoprecipitation assay; assay type: cell-based; conditions: Homo sapiens
HUVEC [20] = assay: Effect on LPS-induced wild type NF-kappaB-dependent ICAM1 promoter expression in HUVEC preincubated for 4 hrs assessed after 6 hrs of LPS challenge by luciferase reporter assay; assay type: cell-based; conditions: Homo sapiens
HUVEC [21] = assay: Effect on TNF-alpha-induced NF-kappaB activation in HUVEC preincubated for 4 hrs assessed as increase in c-Rel level after 0.5 hrs of TNFalpha challenge by electrophoretic shift mobility assay; assay type: cell-based; conditions: Homo sapiens
HUVEC [22] = assay: Induction of PMA-induced wild type TFkappaB-dependent tissue factor promoter expression in HUVEC at 100 nM preincubated for 4 hrs assessed after 6 hrs of PMA challenge by luciferase reporter assay; assay type: cell-based; conditions: Homo sapiens
HUVEC [23] = assay: Inhibition of HOSCN-induced tissue factor protein expression in HUVEC preincubated for 4 hrs assessed after 4 hrs of HOSCN challenge by Western blotting; assay type: functional, cell-based; conditions: Homo sapiens
HUVEC [24] = assay: Effect on TNF-alpha-induced NF-kappaB activation assessed as p65/p50 binding to NF-kappaB in HUVEC at 1 uM preincubated for 4 hrs measured after 0.5 hrs of TNFalpha challenge by electrophoretic shift mobility assay; assay type: cell-based; conditions: Homo sapiens
HUVEC [25] = assay: Inhibition of TNF-alpha-induced p65 binding to ICAM1 NF-kappaB in HUVEC preincubated for 4 hrs assessed after 0.5 hrs of TNFalpha challenge by chromatin immunoprecipitation assay; assay type: cell-based; conditions: Homo sapiens
HUVEC [26] = assay: Effect on TNF-alpha-induced IkappaB degradation in HUVEC at 1 uM preincubated for 4 hrs assessed after 60 mins of TNFalpha challenge by Western blotting; assay type: functional, cell-based; conditions: Homo sapiens
[27] = biological target: T1, Tissue factor (Mus musculus); assay: Inhibition of LPS-induced tissue factor activity in C57BL/6J mouse macrophages preincubated for 4 hrs assessed after 5 hrs of LPS challenge by one stage clotting assay; conditions: concentration not given here
HUVEC [28] = assay: Effect on TNF-alpha-induced SP1 protein level in HUVEC preincubated for 4 hrs assessed after 0.5 hrs of TNFalpha challenge by Western blotting; assay type: functional, cell-based; conditions: Homo sapiens
HUVEC [29] = assay: Effect on TNF-alpha-induced NF-kappaB activation assessed as p65/p50 binding to NF-kappaB in HUVEC at 0.3 uM preincubated for 4 hrs measured after 0.5 hrs of TNFalpha challenge by electrophoretic shift mobility assay; assay type: cell-based; conditions: Homo sapiens
HUVEC [30] = assay: Inhibition of LPS-induced wild type TFkappaB-dependent tissue factor promoter expression in HUVEC preincubated for 4 hrs assessed after 6 hrs of LPS challenge by luciferase reporter assay; assay type: cell-based; conditions: Homo sapiens
HUVEC [31] = assay: Inhibition of LPS-induced tissue factor protein expression in HUVEC preincubated for 4 hrs assessed after 4 hrs of LPS challenge by Western blotting; assay type: functional, cell-based; conditions: Homo sapiens
HUVEC [32] = assay: Inhibition of IL-1-beta-induced tissue factor protein expression in HUVEC preincubated for 4 hrs assessed after 4 hrs of IL1-beta challenge by Western blotting; assay type: functional, cell-based; conditions: Homo sapiens
HUVEC [33] = assay: Effect on TNF-alpha-induced Egr1 protein level in HUVEC preincubated for 4 hrs assessed after 0.5 hrs of TNFalpha challenge by Western blotting; assay type: functional, cell-based; conditions: Homo sapiens
HUVEC [34] = assay: Inhibition of TNFalpha induced wild type TFkappaB-dependent tissue factor promoter expression in HUVEC preincubated for 4 hrs assessed after 6 hrs of TNFalpha challenge by luciferase reporter assay; assay type: cell-based; conditions: Homo sapiens
[35] = biological target: Tissue factor (Homo sapiens) (UniProt P13726); assay: Inhibition of TNF-alpha-induced tissue factor activity in HUVEC at 1 uM preincubated for 4 hrs assessed after 4 hrs of TNFalpha challenge by one stage clotting assay; assay type: cell-based
HUVEC [36] = assay: Effect on TNF-alpha-induced TFkappaB activation assessed as p65/p50 binding to TFkappaB in HUVEC preincubated for 4 hrs measured after 0.5 hrs of TNFalpha challenge by electrophoretic shift mobility assay; assay type: cell-based; conditions: Homo sapiens
HUVEC [37] = assay: Reduction of ICAM1 mRNA level in TNF-alpha-stimulated HUVEC at 1 uM preincubated for 4 hrs assessed after 1 to 2 hrs of TNFalpha challenge by RT-PCR; assay type: functional, cell-based; conditions: Homo sapiens
HUVEC [38] = assay: Effect on TNF-alpha-induced NF-kappaB activation in HUVEC preincubated for 4 hrs assessed as increase in p65 level after 0.5 hrs of TNFalpha challenge by electrophoretic shift mobility assay; assay type: cell-based; conditions: Homo sapiens
[39] = biological target: T1, Tissue factor (Mus musculus); assay: Inhibition of baseline tissue factor activity in non-stimulated C57BL/6J mouse macrophages after 4 hrs by one stage clotting assay; conditions: concentration not given here
HUVEC [40] = assay: Effect on TNF-alpha-induced wild type NF-kappaB-dependent ICAM1 promoter expression in HUVEC preincubated for 4 hrs assessed after 6 hrs of TNFalpha challenge by luciferase reporter assay; assay type: cell-based; conditions: Homo sapiens

Tissue factor (Homo sapiens), sequence (P13726 whole entry): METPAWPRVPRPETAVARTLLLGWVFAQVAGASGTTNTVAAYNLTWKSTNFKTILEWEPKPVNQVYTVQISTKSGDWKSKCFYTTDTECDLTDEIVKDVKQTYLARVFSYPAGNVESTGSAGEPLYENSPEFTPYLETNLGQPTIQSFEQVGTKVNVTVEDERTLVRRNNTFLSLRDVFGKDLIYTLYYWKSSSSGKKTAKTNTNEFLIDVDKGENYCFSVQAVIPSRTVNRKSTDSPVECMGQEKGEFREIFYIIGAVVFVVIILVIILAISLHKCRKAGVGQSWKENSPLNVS

`CCCC(=O)[O-].[Na+]` gave an inhibition [1] of 90% and an inhibition [2] of 95%.

For `CCCC(CCC)C(=O)O`, the inhibition [3] was 81% and the inhibition [4] was 93%.

For `Nc1ccccc1NC(=O)c1ccc(CNC(=O)OCc2cccnc2)cc1`, the inhibition [5] was 85% and the inhibition [6] was 92%.

Compound `CCC(=O)CCCCC[C@@H]1NC(=O)[C@H]2CCCCN2C(=O)[C@H](C(C)CC)NC(=O)[C@H](Cc2cn(OC)c3ccccc23)NC1=O` (single isomer, unassigned) has an inhibition [7] of 85% and an inhibition [8] of 80%.

With `CC(/C=C/C(=O)NO)=C\[C@@H](C)C(=O)c1ccc(N(C)C)cc1` [TRICHOSTATIN] the inhibition [9] was 91%, the inhibition [10] was 60% and the Activity (HUVEC [11]) was “Active”. The Activity (HUVEC [12]) was “Active”, the Activity (HUVEC [13]) was “Active” and the Activity (HUVEC [14]) was “inactive”. For the same compound, the Activity (HUVEC [15]) was “Active”, the inhibition [16] was 60% and the Activity (Mus musculus) was 50%. For the same compound, the Activity (HUVEC [17]) was “inactive”, the Activity (HUVEC [18]) was “Active” and the Activity (HUVEC [19]) was “Active”. The Activity (HUVEC [20]) was “inactive”, the Activity (HUVEC [21]) was “inactive” and the Activity (HUVEC [22]) was 75%. The Activity (HUVEC [23]) was “Active”, the Activity (HUVEC [24]) was “inactive” and the Activity (HUVEC [25]) was “inactive”. The Activity (HUVEC [26]) was “inactive”, the inhibition [27] was 60% and the Activity (HUVEC [28]) was “inactive”. The Activity (HUVEC [29]) was “inactive”, the Activity (HUVEC [30]) was “Active” and the Activity (HUVEC [31]) was “Active”. For the same compound, the Activity (HUVEC [32]) was “Active”, the Activity (HUVEC [33]) was “inactive” and the Activity (HUVEC [34]) was “Active”. The inhibition [35] was 95%, the Activity (HUVEC [36]) was “Active” and the Activity (HUVEC [37]) was “inactive”. For the same compound, the Activity (HUVEC [38]) was “inactive”, the inhibition [39] was 60% and the Activity (HUVEC [40]) was “inactive”.
